According to paper PMC8777785, “Antimicrobial Activity of Snake β-Defensins and Derived Peptides” (Toxins, 2021):
Values after ≈ are worked out from the molar mass of the structure shown. Residues, ends and D or L forms follow the SMILES beside them.

Tests used:
[1] = system: Trichophyton rubrum (IOC 4527); assay: Resazurin microtiter assay plate, antifungal MIC90; assay type: cell-based; conditions: resazurin colour change, RPMI 1640, 1 to 250 μM, 28 °C, 24–72 h; three independent experiments
Experimental: (§1) The derived peptides were also tested against fungi species using the classical resazurin microtiter assay plate method. It is based on the color change of the rezazurin dye that in blue indicates the absence of growth in at least 90%, and pink refers to microorganism growth. MIC is determined as the minimal concentration of the sample that can prevent the color change from blue to pink and refers to the inhibition of 90% of microorganisms.
(§2) The antifungal activity was evaluated by the microdilution assay as previously described on clinical strains of Candida albicans (IOC 4525), Cryptococcus neoformans (IOC 4528), Trichophyton rubrum (IOC 4527) and Aspergillus fumigatus (IOC 4526). The fungi were cultivated in potato dextrose agar at 28 °C according to the Clinical and Laboratory Standards Institute recommendations. Fungal suspensions were prepared in RPMI 1640 culture media; the CFU/mL was adjusted to 0.5–2.5 × 10^3 for yeasts (C. albicans and C. neoformans) and 0.4–5 × 10^4 CFU/mL for filamentous fungi (T. rubrum e A. fumigatus), by comparison with a standard curve previously stablished in our laboratory.
(§3) The peptides PS1, PS2, PS, PS3, PS4, PS5 and PS6 at 1 mM in acetic acid at 0.01% were diluted in RPMI 1640 culture media at concentrations ranging from 1 to 250 μM. Amphotericin B (AMB) at concentrations below 15 μg/mL (16 μM) and acetic acid from 0.0002 to 0.0025% was used as control.
(§4) The fungi suspensions were added to a 96 well plate (100 µL/well) and the samples (100 µL) in different concentrations were added to each well. The plate was incubated at 28 °C for 24–72 h, and 24 h before the end of the assay 25 µL of the rezazurin dye at 0.02% were added to each well. The minimal inhibitory concentration (MIC90) was defined as the lowest concentration that prevents the rezazurin’s change in color from blue to pink due to the inhibition of at least 90% of the microorganism’s growth. The assays were performed in three independent experiments.

[2] = system: Aspergillus fumigatus (IOC 4526); assay: Resazurin microtiter assay plate, antifungal MIC90; assay type: cell-based; conditions: resazurin colour change, RPMI 1640, 1 to 250 μM, 28 °C, 24–72 h; three independent experiments
Experimental: as §1, §2, §3, §4

[3] = system: Cryptococcus neoformans (IOC 4528); assay: Resazurin microtiter assay plate, antifungal MIC90; assay type: cell-based; conditions: resazurin colour change, RPMI 1640, 1 to 250 μM, 28 °C, 24–72 h; three independent experiments
Experimental: as §1, §2, §3, §4

[4] = system: Candida albicans (IOC 4525); assay: Resazurin microtiter assay plate, antifungal MIC90; assay type: cell-based; conditions: resazurin colour change, RPMI 1640, 1 to 250 μM, 28 °C, 24–72 h; three independent experiments
Experimental: as §1, §2, §3, §4

Staphylococcus aureus = assay: Microbroth dilution assay, MIC; assay type: cell-based; conditions: short derived peptides, 2.75 to 700 µg/mL, overnight 37 °C, read at 600 nm, three independent experiments
Experimental: (§5) The β-defensins were tested using a microbroth dilution assay. It consists of incubating the bacteria (4.105 colony-forming unit—CFU/mL) and the peptide (from 1 to 512 µg/mL) in liquid broth. After the incubation at 37 °C during the night, the bacterial growth was detected by spectrophotometry at 600 nm. If the measure is similar to the broth, it […]. […] The β-defensins were tested against B. jararaca oral flora because it would be of biological and medical interest. In addition, we tested on E. coli ATCC 25922 and M. luteus that are common Gram-negative and Gram-positive bacteria used in antibacterial tests.
(§6) The antibacterial activity of the alkylated peptides was tested against Gram-negative (G−) bacteria (Klebsiella pneumonia, Serratia marcescens, Morganella morganii, Providencia rettgeri, Citrobacter freundii, Escherichia coli ATCC 25922 and Gram-positive (G+) bacteria (Micrococcus luteus A270 and Staphylococcus aureus) using microbroth assay. In a 96-well plate, 90 µL of 10% tryptone soy broth (TSB) with 4 × 10^5 colony-forming unit (CFU/mL) were mixed with serial twofold dilutions of β-defensins duplicate in concentrations from 512 to 1 µg/mL. The derived peptides coded as PS1, PS2, PS3, PS5, and PS6 (Table 1) were tested against these bacteria in serial twofold dilutions with concentrations bellow 700 µg/mL. After overnight incubation at 37 °C, the turbidity of the bacterial culture was read at 600 nm (Epoch microplate reader, Biotek). The minimal inhibitory concentration (MIC) of each peptide was determined as the lowest concentration that results in no visible bacterial growth. The MIC resulted from three independent experiments. The bacteria K. pneumonia, S. marcescens, M. morganii, P. rettgeri, C. freundii, M. luteus A270 and S. aureus were isolated from Bothrops jararaca buccal flora and kindly provided by Dr. Márcia R. Franzolin (Laboratory of Bacteriology—Instituto Butantan). M. luteus was kindly provided by Dr. Pedro I. da Silva Jr. (Laboratory of Applied Toxinology—Instituto Butantan).

Micrococcus luteus A270 = assay: Microbroth dilution assay, MIC; assay type: cell-based; conditions: short derived peptides, 2.75 to 700 µg/mL, overnight 37 °C, read at 600 nm, three independent experiments
Experimental: as §5, §6

Citrobacter freundii = assay: Microbroth dilution assay, MIC; assay type: cell-based; conditions: short derived peptides, 2.75 to 700 µg/mL, overnight 37 °C, read at 600 nm, three independent experiments
Experimental: as §5, §6

[5] = system: Escherichia coli ATCC 25922; assay: Microbroth dilution assay, MIC; assay type: cell-based; conditions: short derived peptides, 2.75 to 700 µg/mL, overnight 37 °C, read at 600 nm, three independent experiments
Experimental: as §5, §6

Klebsiella pneumonia = assay: Microbroth dilution assay, MIC; assay type: cell-based, Klebsiella pneumoniae; conditions: short derived peptides, 2.75 to 700 µg/mL, overnight 37 °C, read at 600 nm, three independent experiments
Experimental: as §5, §6

SMILES | MIC90, Trichophyton rubrum [1] | MIC90, Aspergillus fumigatus [2] | MIC90, Cryptococcus neoformans [3] | MIC90, Candida albicans [4] | MIC, S. aureus (Staphylococcus aureus) | MIC, M. luteus (Micrococcus luteus A270) | MIC, C. freundii (Citrobacter freundii) | MIC, E. coli [5] | MIC, K. pneumoniae (Klebsiella pneumonia)
N=C(N)NCCC[C@H](NC(=O)[C@H](Cc1c[nH]c2ccccc12)NC(=O)[C@H](CCCNC(=N)N)NC(=O)[C@@H](N)CO)C(=O)N[C@@H](Cc1c[nH]c2ccccc12)C(=O)N[C@@H](CCCCN)C(=O)N[C@@H](CO)C(=O)N[C@@H](CO)C(=O)N[C@@H](CCCCN)C(=O)N[C@@H](CCCCN)C(=O)NCC(=O)N[C@@H](CO)C(=O)NCC(=O)O [PS1] (H-SRWRWKSSKKGSG-OH) | >250 µM | >250 µM | >250 µM | >250 µM | 56.5 µM (≈ 87.6 µg/mL) | 28.4 µM (≈ 44 µg/mL) | 113 µM (≈ 175 µg/mL) | 56.5 µM (≈ 87.6 µg/mL) | >452 µM
CSCC[C@H](NC(=O)[C@H](CCC(N)=O)NC(=O)[C@@H](N)CO)C(=O)NCC(=O)N[C@@H](CCCNC(=N)N)C(=O)N[C@@H](CCSC)C(=O)N[C@@H](CO)C(=O)N[C@@H](CO)C(=O)N[C@@H](CCCNC(=N)N)C(=O)N[C@@H](CCCNC(=N)N)C(=O)N[C@@H](CCCNC(=N)N)C(=O)N[C@@H](Cc1ccccc1)C(=O)NCC(=O)N[C@@H](CCCCN)C(=O)O [PS2] (H-SQMGRMSSRRRFGK-OH) | >250 µM | >250 µM | >250 µM | >250 µM | 415 µM (≈ 699 µg/mL) | 26.1 µM (≈ 44 µg/mL) | >415 µM | 415 µM (≈ 699 µg/mL) | >415 µM
